One may read the IC50 as the concentration that inhibits the measured activity by half. High values mean weaker potency, low ones greater potency.

The target of the assay is T1, FXR (Homo sapiens, UniProt Q96RI1).
T1 construct: 5 μL of 20 nM FXR-LBD Complete Coregulator buffer G; purchased ThermoFisher PV4833
T1 sequence (Q96RI1 262-486 limits assumed): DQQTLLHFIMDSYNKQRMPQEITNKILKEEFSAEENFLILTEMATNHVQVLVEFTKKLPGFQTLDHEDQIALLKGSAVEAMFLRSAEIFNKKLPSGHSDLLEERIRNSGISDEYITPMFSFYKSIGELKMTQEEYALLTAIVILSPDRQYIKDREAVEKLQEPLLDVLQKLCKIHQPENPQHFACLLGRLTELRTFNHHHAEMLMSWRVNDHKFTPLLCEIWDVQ
Put plainly: FXR antagonist screening by TR-FRET (LanthaScreen TR-FRET FXR co-activation assay kit). The note with it: Table 1.2, FXR antagonistic activity; TR-FRET with CDCA; geometric means of at least two independent runs. It is filed as biochemical. On the procedure: FXR activity was evaluated by time-resolved fluorescence resonance energy transfer (TR-FRET) assay, using LanthaScreen™ TR-FRET FXR co-activation assay kit (ThermoFisher, Cat. PV4833). For agonist screening, 10 μL of Complete Coregulator buffer G containing the corresponding concentration of the compound to be tested, 5 μL of 20 nM FXR-LBD Complete Coregulator buffer G, and 5 μL of 2.0 μM Fluorescein-SRC2-2/20 nM Tb-anti-GST antibody Complete Coregulator buffer G were added to each well of a 384-well black plate (Coring) in sequence. […] Three duplicate wells were set up for each compound, with CDCA as the positive compound and DMSO as the solvent control. For antagonist screening, 5 μL of Complete Coregulator buffer G containing the corresponding concentration of the compound to be tested, 5 μL of 20 nM FXR-LBD Complete Coregulator buffer G, 5 μL of 200 μM CDCA FXR-LBD Complete Coregulator buffer G, and 5 μL of 2.0 μM Fluorescein-SRC2-2/20 nM Tb-anti-GST antibody Complete Coregulator buffer G were added to each well of a 384-well black plate (Coring) in sequence and incubated at room temperature for 10 h. Following operations were the same as those for agonist screening
A general note: TR-FRET usually uses a lanthanide donor and a delayed reading to cut background.
`Cc1c(C(=O)O)oc2ccc(S(=O)(=O)N(CCc3ccccc3)c3ccccc3N3CCC(NC(=O)c4sccc4Br)CC3)cc12` [Example F27-S147, 5-(N-(2-(4-(3-bromothiophene-2-carboxamido)piperidin-1-yl)phenyl)-N-phenethylsulfamoyl)-3-methylbenzofuran-2-carboxylic acid] registered an IC50 of 0.1 to 10 µM.

For `Cc1c(C(=O)O)oc2ccc(S(=O)(=O)N(CCc3ccccc3)c3ccccc3N3CCC4(CCN(C(=O)c5sccc5Br)C4)CC3)cc12` [Example F27-S148], the IC50 fell in the range of 0.1 to 10 µM.

`Cc1c(C(=O)O)oc2ccc(S(=O)(=O)N(CCc3ccccc3)c3ccccc3N3CC4(CCN(C(=O)c5sccc5Br)CC4)C3)cc12` [Example F27-S149, 5-(N-(2-(7-(3-bromothiophene-2-carbonyl)-2,7-diazaspiro[3.5]nonan-2-yl)phenyl)-N-phenethylsulfamoyl)-3-methylbenzofuran-2-carboxylic acid] gave a half-maximal inhibitory concentration (IC50) of 0.1 to 10 µM.

The compound `Cc1c(C(=O)O)oc2ccc(S(=O)(=O)N(CCc3ccccc3)c3ccccc3N3CCC4(CC3)CN(C(=O)c3sccc3Br)C4)cc12` [Example F27-S150] showed an IC50 of 0.1 to 10 µM.

`Cc1c(C(=O)O)oc2ccc(S(=O)(=O)N(CCc3ccccc3)c3ccccc3N3CC4CC(C3)N4C(=O)c3sccc3Br)cc12` [Example F27-S151, 5-(N-(2-(6-(3-bromothiophene-2-carbonyl)-3,6-diazabicyclo[3.1.1]heptan-3-yl)phenyl)-N-phenethylsulfamoyl)-3-methylbenzofuran-2-carboxylic acid]: the IC50 is 0.1 to 10 µM.

In turn, `Cc1c(C(=O)O)oc2ccc(S(=O)(=O)N(CCc3ccccc3)c3ccccc3N3CCN(C(=O)c4sccc4Br)C[C@@H]3C)cc12` [Example F27-S152, (S)-5-(N-(2-(4-(3-bromothiophene-2-carbonyl)-2-methylpiperazin-1-yl)phenyl)-N-phenethylsulfamoyl)-3-methylbenzofuran-2-carboxylic acid] gave an IC50 of 0.1 to 10 µM.

On to `Cc1c(C(=O)O)oc2ccc(S(=O)(=O)N(CCc3ccccc3)c3ccccc3N3CCN(C(=O)c4sccc4Br)C[C@H]3C)cc12` [Example F27-S153, (R)-5-(N-(2-(4-(3-bromothiophene-2-carbonyl)-2-methylpiperazin-1-yl)phenyl)-N-phenethylsulfamoyl)-3-methylbenzofuran-2-carboxylic acid], for which the IC50 was in the range of 0.1 to 10 µM.

The compound `Cc1c(C(=O)O)oc2ccc(S(=O)(=O)N(CCc3ccccc3)c3ccccc3N3CCCN(C(=O)c4sccc4Br)CC3)cc12` [Example F27-S154, 5-(N-(2-(4-(3-bromothiophene-2-formyl)-1,4-diazepin-1-yl)phenyl)-N-phenethylsulfamoyl)3-methylbenzofuran-2-carboxylic acid] returned an IC50 of 0.1 to 10 µM.

Compound `Cc1c(C(=O)O)oc2ccc(S(=O)(=O)N(CCc3ccccc3)c3ccccc3N3C4CCC3CN(C(=O)c3sccc3Br)C4)cc12` [Example F27-S155, 5-(N-(2-(3-(3-bromothiophene-2-formyl)-3,8-diazepine[3.2.1]cyclooctan-8-yl)phenyl)-N-phenethylsulfamoyl)3-methylbenzofuran-2-carboxylic acid] displayed an IC50 of 0.1 to 10 µM.

In the case of `Cc1c(C(=O)O)oc2ccc(S(=O)(=O)N(CCc3ccccc3)c3ccccc3N3CCN(C(=O)c4sccc4Br)C(C)C3)cc12` (stereo not drawn) [Example F27-S156, 5-(N-(2-(4-(3-bromothiophene-2-formyl)-3-methylpiperazin-1-yl)phenyl)-N-phenethylsulfamoyl)3-methylbenzofuran-2-carboxylic acid], the IC50 was in the range of 0.1 to 10 µM.

`Cc1c(C(=O)O)oc2ccc(S(=O)(=O)N(CCc3ccccc3)c3ccccc3N3CC4CC3CN4C(=O)c3sccc3Br)cc12` (stereo not drawn) [Example F27-S157, 5-(N-(2-(5-(3-bromothiophene-2-formyl)-2,5-diazabicyclo[2.2.1]hept-2-yl)phenyl)-N-phenethylsulfamoyl)3-methylbenzofuran-2-carboxylic acid] came in with an IC50 of 0.1 to 10 µM.

With `Cc1c(C(=O)O)sc2ccc(S(=O)(=O)N(CCc3ccccc3)c3ccccc3N3CCN(C(=O)c4sccc4Br)CC3)cc12` [Example F27-S158, 5-(N-(2-(4-(3-bromothiophene-2-carbonyl)piperazin-1-yl)phenyl)-N-phenethylsulfamoyl)-3-toluothiophene-2-carboxylic acid], the IC50 was in the range of 0.1 to 10 µM.

In turn, `O=C(O)c1cc2cc(S(=O)(=O)N(CCc3ccccc3)c3ccccc3N3CCN(C(=O)c4sccc4Br)CC3)ccc2s1` [Example F27-S159, 5-(N-(2-(4-(3-bromothiophene-2-carbonyl)piperazin-1-yl)phenyl)-N-phenethylsulfamoyl)benzo[b]thiophene-2-carboxylic acid] yielded an IC50 of 0.1 to 10 µM.

`O=C(O)c1cc2ccc(S(=O)(=O)N(CCc3ccccc3)c3ccccc3N3CCN(C(=O)c4sccc4Br)CC3)cc2s1` [Example F27-S160, 6-(N-(2-(4-(3-bromothiophene-2-carbonyl)piperazin-1-yl)phenyl)-N-phenethylsulfamoyl)benzo[b]thiophene-2-carboxylic acid] yielded an IC50 of 0.1 to 10 µM.

In turn, `O=C(O)c1[nH]c2ccc(S(=O)(=O)N(CCc3ccccc3)c3ccccc3N3CCN(C(=O)c4sccc4Br)CC3)cc2c1Cl` [Example F27-S161, 5-(N-(2-(4-(3-bromothiophene-2-carbonyl)piperazin-1-yl)phenyl)-N-phenethylsulfamoyl)-3-chloro-1H-indole-2-carboxylic acid] had an IC50 of 0.1 to 10 µM.

As to `O=C(O)c1cc2cc(S(=O)(=O)N(CCc3ccccc3)c3ccccc3N3CCN(C(=O)c4sccc4Br)CC3)ccc2o1` [Example F27-S162, 5-(N-(2-(4-(3-bromothiophene-2-formyl)piperazin-1-yl)phenyl)-N-phenethylsulfamoyl)benzofuran-2-carboxylic acid], the IC50 fell in the range of 0.1 to 10 µM.

Compound `Cc1c(C(=O)O)oc2cc(S(=O)(=O)N(CCc3ccccc3)c3ccccc3N3CCN(C(=O)c4sccc4Br)CC3)ccc12` [Example F27-S163, 6-(N-(2-(4-(3-bromothiophene-2-formyl)piperazin-1-yl)phenyl)-N-phenethylsulfamoyl)3-methylbenzofuran-2-carboxylic acid] showed an IC50 of 0.1 to 10 µM.

Regarding `O=C(O)c1cc2ccc(S(=O)(=O)N(CCc3ccccc3)c3ccccc3N3CCN(C(=O)c4sccc4Br)CC3)cc2o1` [Example F27-S164, 6-(N-(2-(4-(3-bromothiophene-2-formyl)piperazin-1-yl)phenyl)-N-phenethylsulfamoyl)benzofuran-2-carboxylic acid], the IC50 is 0.1 to 10 µM.

Turning to `COc1ccc(CCN(c2ccccc2N2CCN(C(=O)c3sccc3Br)CC2)S(=O)(=O)c2ccc3sc(C(=O)O)c(C)c3c2)cc1` [Example F27-S165, 5-(N-(2-(4-(3-bromothiophene-2-formyl)piperazin-1-yl)phenyl)-N-(4-methoxyphenethyl)sulfamoyl)3-methylbenzothiophene-2-carboxylic acid], the IC50 was 0.1 to 10 µM.

`Cc1c(C(=O)O)sc2ccc(S(=O)(=O)N(CCc3ccc(Cl)cc3)c3ccccc3N3CCN(C(=O)c4sccc4Br)CC3)cc12` [Example F27-S166, 5-(N-(2-(4-(3-bromothiophene-2-carbonyl)piperazin-1-yl)phenyl)-N-(4-chlorophenylethyl)sulfamoyl)-3-methylbenzothiophene-2-carboxylic]: the IC50 is 0.1 to 10 µM.

For the compound `Cc1ccc(CCN(c2ccccc2N2CCN(C(=O)c3sccc3Br)CC2)S(=O)(=O)c2ccc3sc(C(=O)O)c(C)c3c2)cc1` [Example F27-S167, 5-(N-(2-(4-(3-bromothiophene-2-carbonyl)piperazin-1-yl)phenyl)-N-(4-methylphenylethyl)sulfamoyl)-3-methylbenzothiophene-2-carboxylic acid], the IC50 is 0.1 to 10 µM.

Compound `Cc1c(C(=O)O)sc2ccc(S(=O)(=O)N(CCc3ccc(C(=O)O)cc3)c3ccccc3N3CCN(C(=O)c4sccc4Br)CC3)cc12` [Example F27-S168, 5-(N-(2-(4-(3-bromothiophene-2-carbonyl)piperazin-1-yl)phenyl)-N-(4-carboxyphenethyl)sulfamoyl)-3-toluenothiophene-2-carboxylic acid] had an IC50 of 0.1 to 10 µM.

`Cc1c(C(=O)O)sc2ccc(S(=O)(=O)N(CCc3ccc(C#N)cc3)c3ccccc3N3CCN(C(=O)c4sccc4Br)CC3)cc12` [Example F27-S169] registered a half-inhibitory concentration (IC50) of 0.1 to 10 µM.

In turn, `Cc1c(C(=O)O)sc2ccc(S(=O)(=O)N(CCc3ccc(C(F)(F)F)cc3)c3ccccc3N3CCN(C(=O)c4sccc4Br)CC3)cc12` [Example F27-S170, 5-(N-(2-(4-(3-bromothiophene-2-carbonyl)piperazin-1-yl)phenyl)-N-(4-(trifluoromethyl)phenethyl)sulfamoyl)-3-methylbenzothiophene-2-carboxylic acid] yielded an IC50 of 0.1 to 10 µM.

The record behind these values is patent US20240239775A1, “FXR REGULATOR, PREPARATION METHOD THEREFOR, PHARMACEUTICAL COMPOSITION THEREOF AND USE THEREOF” (QINGDAO RUIJI MEDICAL TECHNOLOGY CO., LTD., priority 2021, published 2024).
